Experimental data as given in the supplement of paper PMC10307832.

Columns and labels:
Test in all cases: relative viability (nuclei count vs DMSO), 5 days (fraction); higher = more cells survive
[1] = compound: O=C(Nc1cccc(C(F)(F)F)c1)Nc1cc(S(=O)(=O)NC2CC2)ccc1-c1ccsc1 [AGI-6780] + Cc1nc(NC(=O)N2CCC[C@H]2C(N)=O)sc1-c1ccnc(C(C)(C)C(F)(F)F)c1 [Alpelisib] (partner 2 µM)
Summary of the method: (§1)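 For relative viability, nuclei counts in treated wells were divided by those in vehicle wells. Lung cancer cell lines had been pin-tool dosed in 1536-well plates the day after seeding and cultured for 5 days, then fixed and stained in one step (final 0.05% Triton X-100, 1% formaldehyde, 1 ug/ml Hoechst) and imaged at 4×. Doses were one drug alone or a fixed anchor-drug dose plus five library-drug doses (not always all listed) in √10 steps, and values are duplicate-plate medians.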

[2] = compound: O=C(Nc1cccc(C(F)(F)F)c1)Nc1cc(S(=O)(=O)NC2CC2)ccc1-c1ccsc1 [AGI-6780] + CCNC(=O)c1noc(-c2cc(C(C)C)c(O)cc2O)c1-c1ccc(CN2CCOCC2)cc1 [Luminespib] (partner 0.01 µM)
Summary of the method: as §1

[3] = compound: O=C(Nc1cccc(C(F)(F)F)c1)Nc1cc(S(=O)(=O)NC2CC2)ccc1-c1ccsc1 [AGI-6780] + Cc1cc(Nc2cc(N3CCN(C)CC3)nc(Sc3ccc(NC(=O)C4CC4)cc3)n2)n[nH]1 [Tozasertib] (partner 0.1 µM)
Summary of the method: as §1

[4] = compound: O=C(Nc1cccc(C(F)(F)F)c1)Nc1cc(S(=O)(=O)NC2CC2)ccc1-c1ccsc1 [AGI-6780] + Cc1nc(Nc2ncc(C(=O)Nc3c(C)cccc3Cl)s2)cc(N2CCN(CCO)CC2)n1 [Dasatinib] (partner 0.075 µM)
Summary of the method: as §1

Cell Line | relative viability ([1]; first compound 0.08 µM) | relative viability ([1]; first compound 0.253 µM) | relative viability ([1]; first compound 0.8 µM) | relative viability ([1]; first compound 2.53 µM) | relative viability ([1]; first compound 8 µM) | relative viability ([2]; first compound 0.08 µM) | relative viability ([2]; first compound 0.253 µM) | relative viability ([2]; first compound 0.8 µM) | relative viability ([2]; first compound 2.53 µM) | relative viability ([2]; first compound 8 µM) | relative viability ([3]; first compound 0.08 µM) | relative viability ([3]; first compound 0.253 µM) | relative viability ([3]; first compound 0.8 µM) | relative viability ([3]; first compound 2.53 µM) | relative viability ([3]; first compound 8 µM) | relative viability ([4]; first compound 0.08 µM) | relative viability ([4]; first compound 0.253 µM) | relative viability ([4]; first compound 0.8 µM) | relative viability ([4]; first compound 2.53 µM) | relative viability ([4]; first compound 8 µM)
NCI-H661 | 0.483 | 0.713 | 0.791 | 0.51 | 0.59 | 0.928 | 0.938 | 0.951 | 1.01 | 0.87 | 0.367 | 0.36 | 0.357 | 0.345 | 0.354 | 0.819 | 0.998 | 0.986 | 0.858 | 1.02
NCI-H727 | 0.679 | 0.588 | 0.742 | 0.491 | 0.548 | 0.322 | 0.545 | 0.347 | 0.287 | 0.468 | 0.583 | 0.568 | 0.669 | 0.722 | 0.681 | 0.35 | 0.297 | 0.386 | 0.314 | 0.398
NCI-H838 | 1.05 | 0.927 | 1.01 | 0.825 | 0.959 | 0.374 | 0.353 | 0.339 | 0.303 | 0.274 | 0.321 | 0.244 | 0.295 | 0.276 | 0.224 | 0.312 | 0.357 | 0.307 | 0.261 | 0.321
NCI-H1355 | 0.98 | 0.894 | 0.848 | 0.696 | 0.787 | 0.75 | 0.791 | 0.686 | 0.408 | 0.624 | 0.594 | 0.575 | 0.562 | 0.41 | 0.45 | 0.771 | 0.712 | 0.771 | 0.518 | 0.776
